Values quoted from earlier work as cited in publication PMC11923824, “Spider-derived peptide LCTx-F2 suppresses ASIC channels by occupying the acidic pocket” (The Journal of Biological Chemistry, 2025).

Experiments:
[1] = test system: ASICs in dorsal root ganglion neurons; conditions: no reference given
Excerpt: (§1) ASIC channels, particularly ASIC1a and ASIC3, are affected by certain cations like Ca^2+ and Zn^2+, which provides valuable insights for the development of novel drugs targeting ASICs. […] Depletion of insulin leads to an increase in ASIC1a channel expression in Chinese hamster ovary cells and neurons.

ASIC3 channel = conditions: nonproton ligand
Excerpt: as §1

rASIC2a channel = test system: rASIC2a channel
Excerpt: Venom serves as a crucial weapon for animals in hunting prey and defending against enemies. Spider venom contains a variety of peptide toxins, some of which induce pain by targeting different ion channels ([29], [30], [31]), whereas others have analgesic properties and block the pain pathway ([32], [33], [34]). […] Derived from the spider Lycosa singoriensis, LCTx-F2 enhances ...

ASIC1a channel = test system: ASIC1a channel
Excerpt: ASIC channels, particularly ASIC1a and ASIC3, are affected by certain cations like Ca^2+ and Zn^2+, which provides valuable insights for the development of novel drugs targeting ASICs. […] Depletion of insulin leads to an increase in ASIC1a channel expression in Chinese hamster ovary cells and neurons. […] Spider venom contains a variety of peptide toxins, some of which induce pain by targeting different ion channels ([29], [30], [31]), whereas others have analgesic properties and block the pain pathway ([32], [33], [34]). […] Derived from the spider Lycosa singoriensis, LCTx-F2 enhances ...

ischemic stroke = test system: ischemic stroke
Excerpt: as §1

human ASIC3 channel = test system: human ASIC3 channel
Excerpt: (§2) ASICs play a crucial role in pain perception among mammals ([39], [40]). Some animal toxins that are involved in prey capture and defense mechanisms act on ASICs ([26], [41]). For instance, the venom from Micrurus tener tener causes intense and persistent pain by enhancing the activation of ASICs through the MitTx toxin ([27]). ASICs are also considered important targets for pain relief, and certain chemicals that block their activity have shown strong analgesic effects in tests with living organisms ([42], [43]).

rASIC3 channel = target: T1, rASIC3 channel (Rattus norvegicus, UniProt O35240)
T1 construct: expressed in transfected cells; host or cells: human embryonic kidney 293 cells
T1 sequence (O35240 1-533): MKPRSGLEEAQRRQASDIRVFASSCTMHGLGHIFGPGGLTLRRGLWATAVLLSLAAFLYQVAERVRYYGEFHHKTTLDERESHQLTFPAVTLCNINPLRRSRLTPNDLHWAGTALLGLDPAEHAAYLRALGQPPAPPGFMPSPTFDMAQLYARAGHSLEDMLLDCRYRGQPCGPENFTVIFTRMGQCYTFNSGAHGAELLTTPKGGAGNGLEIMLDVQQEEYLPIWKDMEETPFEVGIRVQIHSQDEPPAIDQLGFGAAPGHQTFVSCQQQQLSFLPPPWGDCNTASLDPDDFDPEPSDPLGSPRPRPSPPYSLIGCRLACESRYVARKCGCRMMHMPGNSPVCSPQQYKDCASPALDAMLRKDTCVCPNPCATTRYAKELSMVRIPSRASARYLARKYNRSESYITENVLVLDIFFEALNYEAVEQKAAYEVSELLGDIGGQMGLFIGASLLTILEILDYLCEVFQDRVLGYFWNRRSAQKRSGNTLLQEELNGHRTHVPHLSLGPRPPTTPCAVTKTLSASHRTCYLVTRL
Excerpt: as §2, with “Venom serves as a crucial weapon for animals in hunting prey and defending against enemies. Spider venom contains a variety of peptide toxins, some of which induce pain by targeting different ion channels ([29], [30], [31]), whereas others have analgesic properties and block the pain pathway ([32], [33], [34]). […] Derived from the spider Lycosa singoriensis, LCTx-F2 enhances ... || ASICs play” for “ASICs play”

hASIC1a channel = conditions: interacts with helix α5 of the thumb domain
ASICs = conditions: no reference given
Excerpt: as §1

humans = conditions: no reference given
Excerpt: as §1

neuron = conditions: no reference given
Excerpt: as §1

[2] = test system: ASIC1a channel in Xenopus oocytes; conditions: no reference given
Excerpt: as §1

nerve growth factor: proinflammatory mediator
effect on ASIC expression [1]: increase the expression of ASICs

Cc1nc(NC(=N)N)nc2ccccc12 [2-guanidine-4-methylquinazoline]
activation of ASIC3 (ASIC3 channel): activated

PcTx1
effect on rASIC2a (in words) (rASIC2a channel): not the rASIC2a or rASIC3 channels | effect on ASIC1a (in words) (ASIC1a channel): selectively inhibit the ASIC1a channel | site of action on ASIC1a (ASIC1a channel): inserts into the acidic pocket of ASIC1a channels | neuroprotection in ischemic stroke (ischemic stroke): exhibits neuroprotection

APETx2
inhibition of hASIC3 (in words) (human ASIC3 channel): inhibit both rASIC3 and hASIC3 channels | IC50 (human ASIC3 channel; read-out: IC50 against human ASIC3 channel): 175 nM | effect on rASIC3 (in words) (rASIC3 channel): inhibit both rASIC3 and hASIC3 channels

mambalgin-1: snake toxin mambalgin-1 (LKCYQHGKVVTCHRDMKFCYHNTGMPFRNLKLILQGCSSSCSETENNKCCSTDRCNK; UniProt P0DKR6 22-78, looked up)
effect on proton sensitivity of hASIC1a (hASIC1a channel): reduces the proton sensitivity

bradykinin: proinflammatory mediator (RPPGFSPFR; Bradykinin; UniProt P01042 381-389, looked up)
effect on ASIC expression [1]: increase the expression of ASICs

N=C(N)NC(=O)c1nc(Cl)c(N)nc1N [Amiloride]
effect on ASICs, amiloride (ASICs): can suppress most ASICs | analgesic effect in humans (humans): has shown analgesic effects in humans | protection against acidosis-induced neuron damage (neuron): provides protection against acidosis-induced neuron damage

B1: matriptase: protease cleaving ASIC1a (protein, UniProt Q9Y5Y6 1-855, looked up)
Suppressor of tumorigenicity …: MGSDRARKGGGGPKDFGAGLKYNSRHEKVNGLEEGVEFLPVNNVKKVEKHGPGRWVVLAAVLIGLLLVLLGIGFLVWHLQYRDVRVQKVFNGYMRITNENFVDAYENSNSTEFVSLASKVKDALKLLYSGVPFLGPYHKESAVTAFSEGSVIAYYWSEFSIPQHLVEEAERVMAEERVVMLPPRARSLKSFVVTSVVAFPTDSKTVQRTQDNSCSFGLHARGVELMRFTTPGFPDSPYPAHARCQWALRGDADSVLSLTFRSFDLASCDERGSDLVTVYNTLSPMEPHALVQLCGTYPPSYNLTFHSSQNVLLITLITNTERRHPGFEATFFQLPRMSSCGGRLRKAQGTFNSPYYPGHYPPNIDCTWNIEVPNNQHVKVRFKFFYLLEPGVPAGTCPKDYVEINGEKYCGERSQFVVTSNSNKITVRFHSDQSYTDTGFLAEYLSYDSSDPCPGQFTCRTGRCIRKELRCDGWADCTDHSDELNCSCDAGHQFTCKNKFCKPLFWVCDSVNDCGDNSDEQGCSCPAQTFRCSNGKCLSKSQQCNGKDDCGDGSDEASCPKVNVVTCTKHTYRCLNGLCLSKGNPECDGKEDCSDGSDEKDCDCGLRSFTRQARVVGGTDADEGEWPWQVSLHALGQGHICGASLISPNWLVSAAHCYIDDRGFRYSDPTQWTAFLGLHDQSQRSAPGVQERRLKRIISHPFFNDFTFDYDIALLELEKPAEYSSMVRPICLPDASHVFPAGKAIWVTGWGHTQYGGTGALILQKGEIRVINQTTCENLLPQQITPRMMCVGFLSGGVDSCQGDSGGPLSSVEADGRIFQAGVVSWGDGCAQRNKPGVYTRLPLFRDWIKENTGV
effect of cleavage on ASIC1a current [2]: reduces its current
